# Experimental data taken from ChEMBL document CHEMBL1201862, “PubChem BioAssay data set” (2004).
# Calls of active or inactive are those of the source.
# How the values were obtained:
# [1] = target: Tumor necrosis factor (Homo sapiens, UniProt P01375); assay: analog potency on TNFa NF-kB signaling – cell-based, revised, SAR follow-up (AID 2337); assay type: functional
# [2] = target: Nucleotide-binding oligomerization domain-containing protein 1 (Homo sapiens, UniProt Q9Y239); assay: blockers of NOD1 pathway activity – revised, SAR follow-up (AID 2333); assay type: functional
# Nucleotide-binding oligomerization domain-containing protein 1, sequence (Q9Y239 whole entry, the tested form may be a part): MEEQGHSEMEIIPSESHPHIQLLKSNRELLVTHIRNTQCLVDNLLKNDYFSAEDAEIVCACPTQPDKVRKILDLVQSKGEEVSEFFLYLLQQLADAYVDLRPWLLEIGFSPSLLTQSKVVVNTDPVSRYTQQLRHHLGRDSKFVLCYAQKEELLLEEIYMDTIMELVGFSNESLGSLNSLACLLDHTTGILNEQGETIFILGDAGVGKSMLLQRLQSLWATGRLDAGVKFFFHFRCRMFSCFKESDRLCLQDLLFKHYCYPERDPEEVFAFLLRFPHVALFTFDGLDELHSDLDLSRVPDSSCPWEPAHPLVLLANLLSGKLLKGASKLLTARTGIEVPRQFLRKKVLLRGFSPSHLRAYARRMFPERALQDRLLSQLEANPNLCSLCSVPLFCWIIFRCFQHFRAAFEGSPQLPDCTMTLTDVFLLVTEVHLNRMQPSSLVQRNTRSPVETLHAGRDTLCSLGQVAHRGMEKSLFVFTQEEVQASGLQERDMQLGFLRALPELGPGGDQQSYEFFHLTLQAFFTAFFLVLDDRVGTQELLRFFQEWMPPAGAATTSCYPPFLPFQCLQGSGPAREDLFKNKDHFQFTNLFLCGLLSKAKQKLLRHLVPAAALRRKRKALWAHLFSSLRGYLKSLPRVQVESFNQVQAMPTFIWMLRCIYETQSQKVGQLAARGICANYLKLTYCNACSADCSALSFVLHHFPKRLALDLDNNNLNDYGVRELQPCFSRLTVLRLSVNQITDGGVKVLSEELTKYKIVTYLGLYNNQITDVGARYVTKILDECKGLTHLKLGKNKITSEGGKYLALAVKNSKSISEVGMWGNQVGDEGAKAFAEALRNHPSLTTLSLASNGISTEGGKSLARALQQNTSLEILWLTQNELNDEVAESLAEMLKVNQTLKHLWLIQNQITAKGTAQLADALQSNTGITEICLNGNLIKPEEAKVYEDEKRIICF
# [3] = decrease of insulin promoter-GFP reporter – imaging, high-content screening, mouse beta cells (AID 1628); assay type: functional; details: MIN6
# [4] = HEK-293T viability loss after treatment – luminescence, T-cell screen hits, cytotoxicity control for TCR NF-kB inhibitor project, dose response (AID 489026); assay type: functional, cell-based;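 note: cells exposed to compound about 14 hours before the viability readout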
# [5] = reduction of Shn3 3'UTR-driven luciferase in osteoblasts – cell-based, Clone20 osteoblasts, firefly luciferase, cherry-picked, dose response (AID 624132); assay type: functional;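 note: firefly luciferase luminescence from reporter carrying the Shn3 3'UTR in osteoblasts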
# [6] = MIN6 cell viability loss – mouse insulinoma, cytotoxicity control, dose response (AID 2122); assay type: functional;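 note: confirmatory high-throughput counterscreen run to flag cytotoxic compounds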
# [7] = loss of viability in HepG2 cells – cell-based, CellTiter-Glo, cherry-picked, cytotoxicity control for Shn3 inhibitor project, dose response (AID 624134); assay type: functional
# [8] = tested on: HEK293; assay: cells; details: Homo sapiens;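 note: cells exposed to compound for 14 hours overnight before viability readout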
# [9] = non-specific 3'UTR reporter inhibition in Clone20-Shn3RL – cell-based, Renilla luciferase, cherry-picked, counter-screen for Shn3 inhibitor project, dose response (AID 624133); assay type: functional
# [10] = tested on: BJ; assay: BJ-TERT-LT-ST fibroblast viability loss – cell-based, RAS-independent, luminescence, dose response (AID 1935); assay type: functional; details: Homo sapiens;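 note: BJ fibroblasts immortalized with TERT plus LT and ST oncogenes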
# [11] = DRD fibroblast viability loss – cell-based, non-viral oncogenic, luminescence, dose response (AID 1934); assay type: functional; details: Homo sapiens
# [12] = target: T1, Replicative DNA helicase DnaB (Mycobacterium tuberculosis, UniProt P9WMR3); assay: DnaB intein splicing inhibitors, dose response, biochemical, cell-free fluorescence (AID 449749); assay type: functional
# T1 sequence (P9WMR3 whole entry): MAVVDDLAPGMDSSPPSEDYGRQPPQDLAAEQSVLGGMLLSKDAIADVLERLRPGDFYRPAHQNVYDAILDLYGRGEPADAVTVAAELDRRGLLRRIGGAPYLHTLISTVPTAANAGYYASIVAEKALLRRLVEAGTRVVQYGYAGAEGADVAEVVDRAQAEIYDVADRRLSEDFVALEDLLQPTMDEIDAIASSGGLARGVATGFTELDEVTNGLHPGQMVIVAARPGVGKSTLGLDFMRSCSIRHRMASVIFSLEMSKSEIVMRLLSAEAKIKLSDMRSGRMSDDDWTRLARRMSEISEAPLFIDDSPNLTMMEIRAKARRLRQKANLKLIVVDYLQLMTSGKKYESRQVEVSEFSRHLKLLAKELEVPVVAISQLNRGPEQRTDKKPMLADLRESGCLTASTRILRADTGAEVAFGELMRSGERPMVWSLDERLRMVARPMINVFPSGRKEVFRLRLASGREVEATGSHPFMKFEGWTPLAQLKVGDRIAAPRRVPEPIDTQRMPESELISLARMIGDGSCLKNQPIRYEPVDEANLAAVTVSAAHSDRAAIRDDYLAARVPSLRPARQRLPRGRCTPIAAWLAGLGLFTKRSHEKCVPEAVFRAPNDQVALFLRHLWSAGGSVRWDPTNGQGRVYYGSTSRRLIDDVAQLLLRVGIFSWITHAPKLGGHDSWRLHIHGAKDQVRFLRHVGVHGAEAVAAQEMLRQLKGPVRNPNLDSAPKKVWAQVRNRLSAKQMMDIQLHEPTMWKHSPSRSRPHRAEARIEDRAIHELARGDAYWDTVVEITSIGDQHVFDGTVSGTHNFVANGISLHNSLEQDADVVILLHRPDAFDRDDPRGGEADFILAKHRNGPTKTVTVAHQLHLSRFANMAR
# [13] = tested on: BJ; assay: BJ-TERT fibroblast viability loss – cell-based, RAS-independent, luminescence, dose response (AID 1933); assay type: functional; details: Homo sapiens
# [14] = target: T2, Hexokinase HKDC1 (Homo sapiens, UniProt Q2TB90); assay: inhibition of HKDC1 glucose phosphorylation – biochemical, W721R variant, dose response (AID 504729); assay type: functional
# T2 sequence (Q2TB90 whole entry): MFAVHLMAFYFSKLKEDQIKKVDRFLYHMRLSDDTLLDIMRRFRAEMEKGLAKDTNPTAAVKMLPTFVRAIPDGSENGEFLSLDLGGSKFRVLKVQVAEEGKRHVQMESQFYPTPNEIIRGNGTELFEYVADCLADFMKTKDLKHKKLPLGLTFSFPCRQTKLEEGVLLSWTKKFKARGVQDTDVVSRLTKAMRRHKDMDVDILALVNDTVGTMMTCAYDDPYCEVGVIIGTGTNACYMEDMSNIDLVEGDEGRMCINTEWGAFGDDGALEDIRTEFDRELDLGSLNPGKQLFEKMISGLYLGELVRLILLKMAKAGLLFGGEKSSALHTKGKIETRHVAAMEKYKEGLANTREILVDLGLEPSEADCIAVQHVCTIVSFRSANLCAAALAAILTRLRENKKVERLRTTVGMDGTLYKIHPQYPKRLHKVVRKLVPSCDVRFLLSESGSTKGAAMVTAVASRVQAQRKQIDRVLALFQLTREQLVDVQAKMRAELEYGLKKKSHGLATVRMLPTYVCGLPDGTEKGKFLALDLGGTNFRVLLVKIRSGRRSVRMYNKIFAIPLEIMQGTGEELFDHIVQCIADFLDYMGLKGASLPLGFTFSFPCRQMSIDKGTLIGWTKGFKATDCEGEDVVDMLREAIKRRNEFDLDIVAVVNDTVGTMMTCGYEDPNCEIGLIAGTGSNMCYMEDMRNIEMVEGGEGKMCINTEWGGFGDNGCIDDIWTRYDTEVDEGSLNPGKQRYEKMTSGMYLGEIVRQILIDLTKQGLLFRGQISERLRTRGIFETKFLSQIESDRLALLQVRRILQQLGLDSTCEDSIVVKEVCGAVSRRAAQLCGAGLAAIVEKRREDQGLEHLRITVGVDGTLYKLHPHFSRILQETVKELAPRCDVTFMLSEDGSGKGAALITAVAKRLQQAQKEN
# [15] = Intein inhibitors as potential Tuberculosis drugs, a cytotoxicity screen. [Related pubchem assays (depositor defined):AID2221, AID2223, AID434968, AID435010, AID449749, AID449750, AID489010]; assay type: functional
# [16] = tested on: BJ; assay: cells; assay type: functional, cell-based; details: Homo sapiens
# [17] = target: T3, Protein RecA (Mycobacterium tuberculosis, UniProt P9WHJ3); assay: Fluorescence Cell-Free Homogeneous Dose Retest to Identify Inhibitors of RecA-Intein Splicing Activity. [Related pubchem assays (depositor defined):AID2097, AID2223, AID489010, AID492950]; assay type: functional
# T3 sequence (P9WHJ3 whole entry): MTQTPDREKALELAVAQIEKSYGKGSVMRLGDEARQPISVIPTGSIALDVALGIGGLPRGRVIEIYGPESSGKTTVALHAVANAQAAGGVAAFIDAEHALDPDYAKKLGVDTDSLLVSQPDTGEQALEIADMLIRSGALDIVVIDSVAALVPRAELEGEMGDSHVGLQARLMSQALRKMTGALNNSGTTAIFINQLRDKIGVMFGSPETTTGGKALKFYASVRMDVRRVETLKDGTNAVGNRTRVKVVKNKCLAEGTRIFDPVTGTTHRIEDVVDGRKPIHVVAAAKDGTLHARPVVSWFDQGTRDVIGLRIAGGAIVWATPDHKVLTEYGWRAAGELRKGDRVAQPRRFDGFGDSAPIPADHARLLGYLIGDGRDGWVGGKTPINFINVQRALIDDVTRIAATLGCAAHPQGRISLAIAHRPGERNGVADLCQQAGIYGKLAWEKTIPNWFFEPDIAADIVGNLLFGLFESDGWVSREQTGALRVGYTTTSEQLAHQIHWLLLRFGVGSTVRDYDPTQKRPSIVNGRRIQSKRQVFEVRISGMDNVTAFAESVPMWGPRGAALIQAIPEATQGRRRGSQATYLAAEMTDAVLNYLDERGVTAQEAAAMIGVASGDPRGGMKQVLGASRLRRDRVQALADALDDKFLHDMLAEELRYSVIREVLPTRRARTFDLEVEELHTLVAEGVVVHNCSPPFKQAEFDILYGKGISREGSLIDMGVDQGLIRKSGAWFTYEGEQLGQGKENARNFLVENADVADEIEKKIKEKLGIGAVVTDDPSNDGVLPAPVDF
# [18] = target: T4, Alkaline phosphatase, tissue-nonspecific isozyme (Homo sapiens, UniProt P05186); assay: potency against alkaline phosphatase TNAP – biochemical, luminescent, dose response, SAR follow-up (AID 1056)
# T4 sequence (P05186 whole entry): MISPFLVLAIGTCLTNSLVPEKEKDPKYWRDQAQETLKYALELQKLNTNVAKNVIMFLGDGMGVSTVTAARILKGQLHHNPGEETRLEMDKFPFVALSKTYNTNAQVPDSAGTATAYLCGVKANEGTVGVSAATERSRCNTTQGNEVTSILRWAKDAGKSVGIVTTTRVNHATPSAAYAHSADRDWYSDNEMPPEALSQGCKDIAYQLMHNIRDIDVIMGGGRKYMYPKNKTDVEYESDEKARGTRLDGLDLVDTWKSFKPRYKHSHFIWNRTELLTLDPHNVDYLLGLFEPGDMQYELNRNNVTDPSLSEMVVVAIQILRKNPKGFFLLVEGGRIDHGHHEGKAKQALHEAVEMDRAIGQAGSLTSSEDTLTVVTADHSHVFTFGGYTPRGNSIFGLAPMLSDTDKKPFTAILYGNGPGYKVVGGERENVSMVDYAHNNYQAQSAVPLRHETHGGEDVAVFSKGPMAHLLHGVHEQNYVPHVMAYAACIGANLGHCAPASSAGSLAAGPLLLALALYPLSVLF
# [19] = target: Glyceraldehyde-3-phosphate dehydrogenase (Homo sapiens, UniProt P04406)
# Glyceraldehyde-3-phosphate dehydrogenase, sequence (P04406 whole entry): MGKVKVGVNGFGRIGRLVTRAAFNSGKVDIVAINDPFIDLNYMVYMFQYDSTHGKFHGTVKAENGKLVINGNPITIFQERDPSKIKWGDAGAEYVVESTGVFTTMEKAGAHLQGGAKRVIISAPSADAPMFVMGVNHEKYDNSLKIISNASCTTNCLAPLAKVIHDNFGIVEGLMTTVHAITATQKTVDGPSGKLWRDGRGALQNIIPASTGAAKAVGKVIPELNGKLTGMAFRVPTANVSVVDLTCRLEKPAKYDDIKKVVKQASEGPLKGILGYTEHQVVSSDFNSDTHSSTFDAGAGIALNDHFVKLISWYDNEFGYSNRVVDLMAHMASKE
# [20] = target: Paired box protein Pax-8 (Homo sapiens, UniProt Q06710); assay: PAX8 transcriptional activity inhibition in RMG-I – RMG-I cells, luciferase, cherry-pick, dose response (AID 687027); assay type: functional, cell-based;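 note: luciferase reporter driven by Pax8 target thyroperoxidase promoter measured by SteadyGlo luminescence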
# Paired box protein Pax-8, sequence (Q06710 whole entry): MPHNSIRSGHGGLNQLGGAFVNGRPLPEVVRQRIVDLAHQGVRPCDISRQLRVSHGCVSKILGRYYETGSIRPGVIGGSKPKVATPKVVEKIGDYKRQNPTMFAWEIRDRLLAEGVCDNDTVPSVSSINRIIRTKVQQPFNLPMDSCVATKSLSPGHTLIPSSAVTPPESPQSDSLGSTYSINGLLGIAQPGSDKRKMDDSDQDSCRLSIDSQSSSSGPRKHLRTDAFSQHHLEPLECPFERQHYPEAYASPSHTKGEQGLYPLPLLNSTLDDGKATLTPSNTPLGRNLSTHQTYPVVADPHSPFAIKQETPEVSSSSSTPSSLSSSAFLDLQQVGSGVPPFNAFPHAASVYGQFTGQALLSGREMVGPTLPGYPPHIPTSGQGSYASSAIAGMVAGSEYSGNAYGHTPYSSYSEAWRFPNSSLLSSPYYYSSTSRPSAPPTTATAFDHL
# [21] = target: T5, Heat shock factor protein 1 (Mus musculus, UniProt P38532); assay: enhancement of HSF1-driven luciferase signal – cell-based, NIH3T3, luminescence, dose retest, confirmation (AID 435004); assay type: functional;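 note: stress induced by proteasome inhibitor MG132 added 30 min after compound; luciferase reporter driven by HSF1 response element in NIH3T3 cells; actives raise luminescence as potentiators of the MG132 stress response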
# T5 sequence (P38532 whole entry): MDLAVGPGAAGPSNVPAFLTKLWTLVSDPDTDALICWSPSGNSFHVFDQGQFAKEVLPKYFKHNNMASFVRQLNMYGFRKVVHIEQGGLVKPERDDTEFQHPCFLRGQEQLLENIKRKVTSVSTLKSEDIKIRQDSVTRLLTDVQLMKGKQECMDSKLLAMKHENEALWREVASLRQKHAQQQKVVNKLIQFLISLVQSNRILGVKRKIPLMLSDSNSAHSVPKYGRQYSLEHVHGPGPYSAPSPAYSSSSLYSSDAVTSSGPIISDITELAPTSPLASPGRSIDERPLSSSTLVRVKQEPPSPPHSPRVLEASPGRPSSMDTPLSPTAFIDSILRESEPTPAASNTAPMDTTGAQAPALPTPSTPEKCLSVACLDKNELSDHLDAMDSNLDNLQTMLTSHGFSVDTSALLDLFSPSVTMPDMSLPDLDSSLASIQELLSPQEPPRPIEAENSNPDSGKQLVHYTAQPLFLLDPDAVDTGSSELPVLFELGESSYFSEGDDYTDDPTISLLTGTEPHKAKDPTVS
# [22] = tested on: Vero; assay: mammalian cell viability reduction – secondary assay, cytotoxicity control for West Nile virus antiviral project, dose response (AID 1650); assay type: functional; details: Chlorocebus sabaeus
# [23] = general cell-killing toxicity readout – plate reader, dry powder samples, cytotoxicity control for PAX8 inhibitor project, dose response (AID 743021); assay type: functional, cell-based
# [24] = target: Alkaline phosphatase, placental type (Homo sapiens, UniProt P05187); assay: human placental alkaline phosphatase inhibition – biochemical, luminescence, confirmation (AID 1512); assay type: functional
# Alkaline phosphatase, placental type, sequence (P05187 whole entry): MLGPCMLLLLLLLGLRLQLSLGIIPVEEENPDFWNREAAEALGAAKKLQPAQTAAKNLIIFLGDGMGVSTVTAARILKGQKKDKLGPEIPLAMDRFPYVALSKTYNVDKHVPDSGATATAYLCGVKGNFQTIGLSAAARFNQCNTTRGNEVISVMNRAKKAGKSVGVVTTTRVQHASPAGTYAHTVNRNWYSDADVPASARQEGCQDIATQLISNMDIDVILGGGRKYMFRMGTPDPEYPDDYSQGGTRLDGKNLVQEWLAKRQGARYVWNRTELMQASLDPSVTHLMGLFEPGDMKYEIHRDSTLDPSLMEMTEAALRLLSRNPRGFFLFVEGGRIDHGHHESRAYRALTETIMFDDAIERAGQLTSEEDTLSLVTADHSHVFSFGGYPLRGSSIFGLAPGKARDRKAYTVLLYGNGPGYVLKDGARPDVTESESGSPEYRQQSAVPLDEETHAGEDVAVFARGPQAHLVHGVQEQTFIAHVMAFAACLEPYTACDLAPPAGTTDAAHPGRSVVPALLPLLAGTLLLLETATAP
# Tumor necrosis factor, sequence (P01375 whole entry, the tested form may be a part): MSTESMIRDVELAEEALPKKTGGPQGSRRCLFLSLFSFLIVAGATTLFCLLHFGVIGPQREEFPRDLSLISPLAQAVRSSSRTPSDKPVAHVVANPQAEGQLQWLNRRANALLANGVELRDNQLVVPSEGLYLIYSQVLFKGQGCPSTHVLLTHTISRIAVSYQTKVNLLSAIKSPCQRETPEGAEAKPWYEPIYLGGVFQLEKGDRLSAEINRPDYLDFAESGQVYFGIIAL
smiles,measurement,setting,value
O=C(Nc1ccc(S(=O)(=O)N2CCCC2)cc1)c1ccc(CN2CCc3ccccc3C2)cc1,IC50,[1],0.639 µM (active)
same,IC50,[2],0.418 µM (active)
same,IC50,[3],0.707 µM (active)
same,IC50,[4],> 80 µM (inactive)
same,AC50,[5],0.575 µM (active)
same,IC50,[6],0.576 µM (active)
same,AC50,[7],0.292 µM (active)
same,IC50,[8],6.77 µM (active)
same,AC50,[9],0.406 µM (active)
CC(=O)n1cc(N(C(=O)CCl)c2ccc([N+](=O)[O-])cc2)c2ccccc21,EC50,[10],4.78 µM (inconclusive)
same,EC50,[11],2.63 µM (inconclusive)
same,AC50,[12],1.59 µM (active)
same,EC50,[13],2.65 µM (inconclusive)
same,IC50,[14],27 µM (inactive)
same,CC50,[15],12.3 µM (active)
same,EC50,[16],2.59 µM (inconclusive)
same,EC50,[17],0.358 µM (active)
O=S(=O)(Nc1ccc2ccccc2c1)c1ccccc1,IC50,[18],> 100 µM (inactive)
same,IC50,[19],> 100 µM (not active)
Cc1ccc(N(NC(=O)C(O)(c2ccccc2)c2ccccc2)C(=O)CCl)cc1,AC50,[20],8.18 µM (active)
same,EC50,[21],> 260 µM (inconclusive)
same,CC50,[22],6.32 µM (active)
same,AC50,[12],4.45 µM (active)
same,AC50,[23],11.8 µM (active)
same,CC50,[15],7.46 µM (active)
same,EC50,[17],0.529 µM (active)
Cc1cc(C)nc(SCC(=O)c2cccc(O)c2)n1,IC50,[18],> 100 µM (inactive)
same,IC50,[24],> 100 µM (inactive)
